Source: patent US20150038668A1, “Branched Polyesters Based On Citric Acid, Their Preparation And Use” (BASF SE, priority 2010, published 2015)
≈ marks a conversion by molar mass, not a printed value.

Assay: physchem
Settings: thermodynamic from solid
Protocol: To increase the solubility of the low-solubility active ingredients, 40 ml of a 15% polymer solution (in DI water) were prepared. […] If the added active ingredient dissolved, further active ingredient was added, to supersaturation, followed by stirring for a further 72 hours. The resulting suspension was filtered through a 0.45 μm membrane filter and the dissolved fraction of active ingredient was determined by means of UV/Vis spectroscopy. The same method was also carried for the active ingredients alone, in order to determine the solubility of the pure active ingredient and to be able to determine the improvement through salt formation. For comparison, the solubility in 0.1 normal HCl as well was ascertained, representing the solubility of the hydrochloride salt of the corresponding base.

| SMILES | solubility thermodynamic at 72 h (simulated gastric fluid) [µg/mL] | solubility thermodynamic at 72 h (water) [µg/mL] |
| --- | --- | --- |
| NC(N)=Nc1nc(CSCCC(N)=NS(N)(=O)=O)cs1 [Famotidine, famotidine] | 32100 (≈ 95100 µM) | 1000 (≈ 2960 µM) |
| CN(C)C(=O)C(CCN1CCC(O)(c2ccc(Cl)cc2)CC1)(c1ccccc1)c1ccccc1 [Loperamide, loperamide] | 200 (≈ 419 µM) | 70 (≈ 147 µM) |
